Laboratory results published in patent publication US5476966A, “Method for depletion of glutathione” (Cornell Research Foundation, Inc., priority 1995, dated 1995).

Legend:
[1] = test system: glutathione; experiment: Tissue glutathione levels after intraperitoneal administration of sulfoximines; assay type: in vivo, mouse; settings: 2 mmol/Kg i.p.
Experimental: Male mice (Swiss Webster) were fasted overnight (about 16 hr). L-3-methylbuthionine-SR-sulfoximine (3 mBSO; L-S-3-methylbutyl homocysteine-SR-sulfoximine; L-S-isopentyl homocysteine-SR-sulfoximine), L-buthionine-SR-sulfoximine(BSO; L-S-butyl homocysteine-SR-sulfoximine), L-2-methylbuthiomine-SR-sulfoximine (2 mBSO, L-S-2methylbutyl homocysteine-SR-sulfoximine), or saline (0.9% NaCl) were administered to mice at 2 mmol/Kg intraperitoneally (50 mM, Ph ^~ 7). At the times indicated, plasma and tissues were obtained and assayed for glutathione (GSH+1/2 GSSG) as described by Anderson, Methods in Enzymology, 1985, 113:548-555.

[2] = test system: glutathione; experiment: Tissue glutathione after oral administration of sulfoximines (Table 4); assay type: in vivo, mouse; settings: 2 mmol/Kg oral
Experimental: (§1) Male mice (Swiss Webster) were fasted overnight (about 16 hr.) L-buthionine-SR-sulfoximine (BSO, S-n-butyl homocysteine-SR-sulfoximine), L-S-cyclohexylmethyl homocysteine-SR-sulfoximine (CHMSO); L-S-2-ethylbutylhomocysteine-SR-sulfoximine (2 EtBSO, L-S-2-ethylbutyl homocysteine-SR-sulfoximine, or saline (0.9% NaCl) were administered to mice at 2 mmol/Kg by intubation (100 mM; pH about 1 with HCl (200 mM). At the times indicated, plasma and tissues were obtained and assayed for glutathione (GSH+1/2 GSSG) as described by Anderson, Methods in Enzymology, 1985, 113:548-555. (See Table 4 and 5.)

[3] = test system: glutathione; experiment: Tissue glutathione after oral administration of sulfoximines (Table 5); assay type: in vivo, mouse; settings: for % Decrease in glutathione / Glutathione level: 2 mmol/Kg oral
Experimental: as §1

[4] = Detection of compound in mouse bile; assay type: in vivo
[5] = test system: human lymphoid cell lines; settings: cited from earlier work
[6] = test system: V79 cells; settings: cited from earlier work
[7] = test system: B16 melanomas; settings: cited from earlier work
[8] = test system: Trypanosoma brucei; settings: six mice treated, cited from earlier work
[9] = test system: resistant tumors; settings: continuous intraperitoneal infusion of BSO; cited from earlier work
[10] = test system: human ovarian cancer cells; settings: cited from earlier work
[11] = test system: resistant cells; settings: glutathione depletion by BSO; cited from earlier work
[12] = test system: human ovarian tumor cells; settings: grown in nude mice; cited from earlier work
[13] = mice depleted of glutathione by buthionine sulfoximine; cited from earlier work
[14] = test system: mouse L1210 leukemia cells; settings: resistant cells treated with BSO; cited from earlier work

CCCCS(=N)(=O)CCC(N)C(=O)O [BSO, L-S-butyl homocysteine-SR-sulfoximine]
% Decrease in glutathione ([1]; brain, 2 hr): 10% | Glutathione level ([1]; brain, 2 hr): 2.08 µmol/g | % Decrease in glutathione ([1]; brain, 12 hr): 17% | Glutathione level ([1]; brain, 12 hr): 1.93 µmol/g | % Decrease in glutathione ([1]; heart, 2 hr): 14% | Glutathione level ([1]; heart, 2 hr): 1.16 µmol/g | % Decrease in glutathione ([1]; heart, 12 hr): 57% | Glutathione level ([1]; heart, 12 hr): 0.56 µmol/g | % Decrease in glutathione ([1]; kidney, 2 hr): 82% | Glutathione level ([1]; kidney, 2 hr): 0.76 µmol/g | % Decrease in glutathione ([1]; kidney, 12 hr): 79% | Glutathione level ([1]; kidney, 12 hr): 0.75 µmol/g | % Decrease in glutathione ([1]; liver, 2 hr): 72% | Glutathione level ([1]; liver, 2 hr): 1.50 µmol/g | % Decrease in glutathione ([1]; liver, 12 hr): 32% | Glutathione level ([1]; liver, 12 hr): 3.37 µmol/g | % Decrease in glutathione ([1]; plasma, 2 hr): 66% | Glutathione level ([1]; plasma, 2 hr): 10.1 µM | % Decrease in glutathione ([1]; plasma, 12 hr): 43% | Glutathione level ([1]; plasma, 12 hr): 16.3 µM | % Decrease in glutathione ([2]; brain, 2 hr): 24% | Glutathione level ([2]; brain, 2 hr): 1.86 µmol/g | % Decrease in glutathione ([2]; brain, 12 hr): 18% | Glutathione level ([2]; brain, 12 hr): 1.73 µmol/g | % Decrease in glutathione ([2]; kidney, 2 hr): 80% | Glutathione level ([2]; kidney, 2 hr): 0.69 µmol/g | % Decrease in glutathione ([2]; kidney, 12 hr): 87% | Glutathione level ([2]; kidney, 12 hr): 0.45 µmol/g | % Decrease in glutathione ([2]; liver, 2 hr): 75% | Glutathione level ([2]; liver, 2 hr): 1.23 µmol/g | % Decrease in glutathione ([2]; liver, 12 hr): 78% | Glutathione level ([2]; liver, 12 hr): 1.10 µmol/g | % Decrease in glutathione ([2]; plasma, 2 hr): 59% | Glutathione level ([2]; plasma, 2 hr): 9.7 µM | % Decrease in glutathione ([2]; plasma, 12 hr): 69% | Glutathione level ([2]; plasma, 12 hr): 7.2 µM | decrease in brain glutathione levels ([3]; 2 mmol/kg, 12 hours, experimental error about 5%): ~20% | decrease in glutathione levels (cardio-toxicity) ([3]; 2 hours, 2 mmol/kg, mice): 22% | % Decrease in glutathione ([3]; brain, 2 hr): 0% | Glutathione level ([3]; brain, 2 hr): 2.17 µmol/g | % Decrease in glutathione ([3]; brain, 4 hr): 10% | Glutathione level ([3]; brain, 4 hr): 1.95 µmol/g | % Decrease in glutathione ([3]; brain, 8 hr): 12% | Glutathione level ([3]; brain, 8 hr): 2.04 µmol/g | % Decrease in glutathione ([3]; brain, 12 hr): 18% | Glutathione level ([3]; brain, 12 hr): 1.64 µmol/g | % Decrease in glutathione ([3]; heart, 2 hr): 22% | Glutathione level ([3]; heart, 2 hr): 0.86 µmol/g | % Decrease in glutathione ([3]; heart, 4 hr): 17% | Glutathione level ([3]; heart, 4 hr): 0.91 µmol/g | % Decrease in glutathione ([3]; heart, 8 hr): 36% | Glutathione level ([3]; heart, 8 hr): 0.65 µmol/g | % Decrease in glutathione ([3]; heart, 12 hr): 49% | Glutathione level ([3]; heart, 12 hr): 0.58 µmol/g | % Decrease in glutathione ([3]; kidney, 2 hr): 71% | Glutathione level ([3]; kidney, 2 hr): 0.81 µmol/g | % Decrease in glutathione ([3]; kidney, 4 hr): 80% | Glutathione level ([3]; kidney, 4 hr): 0.57 µmol/g | % Decrease in glutathione ([3]; kidney, 8 hr): 86% | Glutathione level ([3]; kidney, 8 hr): 0.44 µmol/g | % Decrease in glutathione ([3]; kidney, 12 hr): 91% | Glutathione level ([3]; kidney, 12 hr): 0.30 µmol/g | % Decrease in glutathione ([3]; liver, 2 hr): 71% | Glutathione level ([3]; liver, 2 hr): 1.50 µmol/g | % Decrease in glutathione ([3]; liver, 4 hr): 87% | Glutathione level ([3]; liver, 4 hr): 0.70 µmol/g | % Decrease in glutathione ([3]; liver, 8 hr): 89% | Glutathione level ([3]; liver, 8 hr): 0.60 µmol/g | % Decrease in glutathione ([3]; liver, 12 hr): 85% | Glutathione level ([3]; liver, 12 hr): 0.73 µmol/g | % Decrease in glutathione ([3]; plasma, 2 hr): 56% | Glutathione level ([3]; plasma, 2 hr): 9.8 µM | % Decrease in glutathione ([3]; plasma, 4 hr): 68% | Glutathione level ([3]; plasma, 4 hr): 7.1 µM | % Decrease in glutathione ([3]; plasma, 8 hr): 78% | Glutathione level ([3]; plasma, 8 hr): 5.1 µM | % Decrease in glutathione ([3]; plasma, 12 hr): 77% | Glutathione level ([3]; plasma, 12 hr): 5.5 µM | detection in mouse bile [4]: no BSO was detected | sensitivity to γ-radiation ([5]; cells with 4-5% of control glutathione): much more sensitive | sensitivity to radiation ([5]; glutathione about 5% of the control levels): marked increase in sensitivity to radiation | oxygen enhancement ratio [6]: decrease of the oxygen enhancement ratio | sensitization to radiation ([6]; hypoxic conditions): sensitization to radiation under hypoxic conditions | longevity ([7]; BSO plus irradiation): significant increase in longevity | tumor size ([7]; BSO plus irradiation): significant decrease in tumor size | tumor glutathione content relative to untreated controls ([7]; when irradiated, tumors in footpads of mice): about 20% | cure of infected mice [8]: two mice were apparently cured | survival of infected mice ([8]; versus untreated infected controls): four mice survived significantly longer | life span [9]: increase in the life span | sensitization of tumors to phenylalanine mustard [9]: sensitization of the tumors to the effects of phenylalanine mustard was achieved | reversal of resistance ([10]; glutathione depletion with BSO): Reversal of resistance can be achieved | sensitivity of resistant cells to the drugs and to radiation ([10]; glutathione depletion): significantly increases the sensitivity of the resistant cells | reversal of drug resistance [11]: reversal of drug resistance | reversal of resistance [12]: reversal of resistance | decrease in LD50 value of acetaminophen [13]: about 80% | sensitivity of resistant cells to phenylalanine mustard [14]: resensitization of the tumor cells to phenylalanine mustard
